Laboratory results from the supplement of paper PMC10307832.

How the values were obtained:
Assay in all cases: relative viability (nuclei count vs DMSO), 5 days (fraction); higher = more cells survive
Apatinib + Palbociclib = compound: N#CC1(c2ccc(NC(=O)c3cccnc3NCc3ccncc3)cc2)CCCC1 [Apatinib] + CC(=O)c1c(C)c2cnc(Nc3ccc(N4CCNCC4)cn3)nc2n(C2CCCC2)c1=O [Palbociclib] (partner 0.5 µM)
Procedure, shortened: (§1)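 Lung cancer cell lines in 1536-well plates were dosed by pin tool the day after seeding, either with one drug alone or with a fixed anchor-drug dose plus five library-drug doses (not always all listed) in √10 steps. After 5 days, cells were fixed and their nuclei stained in one step (final 0.05% Triton X-100, 1% formaldehyde, 1 ug/ml Hoechst), then counted on 4× images. Relative viability is the nuclei count in treated wells divided by that in vehicle wells. Values are medians of duplicate plates.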

Apatinib + Tozasertib = compound: N#CC1(c2ccc(NC(=O)c3cccnc3NCc3ccncc3)cc2)CCCC1 [Apatinib] + Cc1cc(Nc2cc(N3CCN(C)CC3)nc(Sc3ccc(NC(=O)C4CC4)cc3)n2)n[nH]1 [Tozasertib] (partner 0.1 µM)
Procedure, shortened: as §1

Apatinib + Alpelisib = compound: N#CC1(c2ccc(NC(=O)c3cccnc3NCc3ccncc3)cc2)CCCC1 [Apatinib] + Cc1nc(NC(=O)N2CCC[C@H]2C(N)=O)sc1-c1ccnc(C(C)(C)C(F)(F)F)c1 [Alpelisib] (partner 2 µM)
Procedure, shortened: as §1

Apatinib + Phenformin = compound: N#CC1(c2ccc(NC(=O)c3cccnc3NCc3ccncc3)cc2)CCCC1 [Apatinib] + N=C(N)NC(=N)NCCc1ccccc1 [Phenformin] (partner 250 µM)
Procedure, shortened: as §1

| Cell Line | relative viability (Apatinib + Palbociclib; first compound 0.08 µM) | relative viability (Apatinib + Palbociclib; first compound 0.253 µM) | relative viability (Apatinib + Palbociclib; first compound 0.8 µM) | relative viability (Apatinib + Palbociclib; first compound 2.53 µM) | relative viability (Apatinib + Palbociclib; first compound 8 µM) | relative viability (Apatinib + Tozasertib; first compound 0.08 µM) | relative viability (Apatinib + Tozasertib; first compound 0.253 µM) | relative viability (Apatinib + Tozasertib; first compound 0.8 µM) | relative viability (Apatinib + Tozasertib; first compound 2.53 µM) | relative viability (Apatinib + Tozasertib; first compound 8 µM) | relative viability (Apatinib + Alpelisib; first compound 0.08 µM) | relative viability (Apatinib + Alpelisib; first compound 0.253 µM) | relative viability (Apatinib + Alpelisib; first compound 0.8 µM) | relative viability (Apatinib + Alpelisib; first compound 2.53 µM) | relative viability (Apatinib + Alpelisib; first compound 8 µM) | relative viability (Apatinib + Phenformin; first compound 0.08 µM) | relative viability (Apatinib + Phenformin; first compound 0.253 µM) | relative viability (Apatinib + Phenformin; first compound 0.8 µM) | relative viability (Apatinib + Phenformin; first compound 2.53 µM) | relative viability (Apatinib + Phenformin; first compound 8 µM) |
| --- | --- | --- | --- | --- | --- | --- | --- | --- | --- | --- | --- | --- | --- | --- | --- | --- | --- | --- | --- | --- |
| NCI-H3122 | 0.186 | 0.231 | 0.191 | 0.23 | 0.228 | 0.551 | 0.368 | 0.432 | 0.374 | 0.367 | 0.781 | 0.796 | 0.822 | 0.761 | 0.714 | 0.351 | 0.361 | 0.319 | 0.271 | 0.298 |
| PC-3 [JPC-3] |  | 0.555 | 0.557 | 0.516 | 0.53 | 0.904 | 0.871 | 0.78 | 0.814 | 0.681 | 1 | 0.996 | 0.989 | 0.938 | 0.888 | 0.471 | 0.468 | 0.474 | 0.448 | 0.46 |
| PC-14 | 0.555 | 0.619 | 0.493 | 0.611 | 0.33 | 0.7 | 0.65 | 0.536 | 0.562 | 0.493 | 0.935 | 0.861 | 0.876 | 0.875 | 0.838 | 0.445 | 0.793 |  | 0.476 | 0.446 |
| RERF-LC-KJ | 1.11 | 1.1 | 0.467 | 1.05 | 0.984 | 0.538 | 0.428 | 0.393 | 0.326 | 0.293 | 0.857 | 0.875 | 0.779 | 0.751 | 0.823 | 0.452 | 0.403 | 0.401 | 0.427 | 0.454 |
| SK-LU-1 | 0.372 | 0.402 | 0.433 | 0.381 | 0.339 | 0.337 | 0.436 | 0.28 | 0.275 | 0.243 | 1.15 | 1.15 | 0.979 | 0.906 | 0.692 | 0.607 | 0.594 | 0.471 | 0.413 | 0.454 |
| SK-MES-1 | 0.335 | 0.323 | 0.282 | 0.292 | 0.278 | 0.972 | 0.928 | 0.729 | 0.77 | 0.484 | 0.825 | 0.928 | 0.822 | 0.929 | 0.658 | 0.699 | 0.615 | 0.616 | 0.574 | 0.451 |
| SW 1573 | 0.4 | 0.518 | 0.433 | 0.379 | 0.252 | 0.165 | 0.196 | 0.193 | 0.185 | 0.183 | 0.829 | 0.917 | 0.757 | 0.761 | 0.595 | 0.485 | 0.426 | 0.376 | 0.397 | 0.387 |
| UMC-11 | 0.322 | 0.326 | 0.278 | 0.31 | 0.323 | 0.193 | 0.194 | 0.198 | 0.211 | 0.198 | 1.05 | 0.834 | 0.848 | 0.959 | 0.885 | 0.333 | 0.318 | 0.287 | 0.293 | 0.266 |
